Assay results from patent US11618770B2, “MUC1-derived peptide, and pharmaceutical composition for treatment or prevention of cancer, immunity-inducing agent and method for manufacturing antigen presenting cell using same” (NEC CORPORATION, priority 2015, dated 2023).
Ends that are not written are not given here.

Experiments:
HLA-A*24:02 molecule = HLA-A*24:02 molecule (Homo sapiens, UniProt P04439, D101N/D140Y/D185E/E176V/E190D/F33S/G103R/G107R/I119L/I121M/I306V/K335N/L105A/L180Q/L300P/N151K/N90K/Q86E/Q94H/R106L/R138H/R89G/T104I/T345S/V100E/W191G/Y123F); assay: Experiment of binding peptide to HLA-A*24:02 molecule (C1R-A24 cells, antibody 17A12, FACS); conditions: for Kd: given as negative numbers (log of Kd value), C1R-A24 cells, on ice 4 hours
Procedure: Experiment of Binding Peptide to HLA-A*24:02 Molecule
The ability of each of the peptides to bind to an HLA-A*24:02 molecule, which is an HLA-A*24:02 gene product, was measured using C1R-A24 cells expressing the HLA-A*24:02 molecule (cells prepared by Professor Masafumi TAKIGUCHI, Kumamoto University being supplied with permission by Assistant Professor Masaki YASUKAWA, Ehime University).
First, C1R-A24 cells were exposed to acidic conditions at a pH of 3.3 for 30 seconds, and thus an endogenous peptide that originally binds to the HLA-A*24:02 molecule, and a light chain β2m, which is associated with HLA class-I molecules in common, were dissociated and removed. After neutralization, a purified β2m was added to C1R-A24 cells, and the obtained product was added to a series of dilutions of the peptide and incubated on ice for 4 hours. Staining was carried out using a fluorescently labeled monoclonal antibody 17A12, which recognizes association (MHC-pep) of the three members, that is, a HLA-A*24:02 molecule, a peptide, and β2m, which had reassociated during the incubation.
Thereafter, the MHC-pep count per C1R-A24 cell (proportional to the intensity of fluorescence of the above-mentioned fluorescent antibody) was quantitatively measured using a fluorescence-activated cell sorter FACScan (Becton-Dickinson). A binding-dissociation constant Kd value between the HLA-A*24:02 molecule and the peptide was calculated from the average intensity of fluorescence per cell using a method that was reported in a paper (Udaka et al., Immunogenetics, 51, 816-828, 2000) by the inventors of the present invention.

HLA-A*02:01 molecule = target: T1, HLA-A*02:01 molecule (Homo sapiens, UniProt P04439, D140Y/D185E/D98H/E176V/E277Q/G131W/G231S/I119V/I121R/I166T/I218V/L300P/L318F/N151K/N90K/P208A/P217A/Q86G/Q94H/R138H/R169H/T345S); assay: Experiment of binding peptide to HLA-A*02:01 molecule (T2 cells, antibody BB7.2, flow cytometer); conditions: for Kd: given as negative numbers (log of Kd value), T2 cells, 37° C. 4 hours
T1 construct: a cell line T2 (purchased from ATCC) expressing the HLA-A*02:01 molecule; host or cells: T2 cells
Procedure: Experiment of Binding Peptide to HLA-A*02:01 Molecule
The ability of each of the peptides to bind to an HLA-A*02:01 molecule, which is an HLA-A*02:01 gene product, was measured using a cell line T2 (purchased from ATCC) expressing the HLA-A*02:01 molecule.
The T2 cells and purified β2m were added to a series of serial dilutions of the peptide whose binding ability would be measured, and then incubation was carried out at 37° C. for 4 hours. The HLA-A*02:01 molecule that had increased in an expression amount in a peptide-concentration-dependent manner up to this point was stained using a fluorescently labeled monoclonal antibody BB7.2, which is specific to an association type.
(§1) Thereafter, the amount of fluorescence per cell was measured using a flow cytometer, and a dissociation constant Kd value was calculated using a method that was reported in a paper (Udaka et al., Immunogenetics, 51, 816-828, 2000) by the inventors of the present invention.

HLA-A*02:06 molecule = target: T2, HLA-A*02:06 molecule (Homo sapiens, UniProt P04439, D140Y/D185E/D98H/E176V/E277Q/F33Y/G131W/G231S/I119V/I121R/I166T/I218V/L300P/L318F/N151K/N90K/P208A/P217A/Q86G/Q94H/R138H/R169H/T345S); assay: Experiment of binding peptide to HLA-A*02:06 molecule (RA2.6 cells, antibody BB7.2, flow cytometer); conditions: for Kd: given as negative numbers (log of Kd value), RA2.6 cells
T2 construct: expressed in transfected cells; host or cells: RA2.6 cells (mouse TAP-deficient RMAS cells carrying HLA-A*02:06 cDNA)
Procedure: Experiment of Binding Peptide to HLA-A*02:06 Molecule
The ability of each of the peptides to bind to an HLA-A*02:06 molecule, which is an HLA-A*02:06 gene product, was measured using RA2.6 cells (cell line that had been newly produced in Kochi University) produced by introducing the cDNA of the HLA-A*02:06 gene into a mouse TAP (transporter associated with antigen processing)-deficient cell line RMAS.
First, RA2.6 cells were cultured at 26° C. overnight.
Thereafter, the cells were cultured at 35° C. for 4 hours. […] A fluorescently labeled monoclonal antibody BB7.2, which specifically recognizes a peptide-binding HLA-A*02:06 molecule, was added thereto, incubation was carried out on ice for 20 minutes, and thus the cells were stained.
as §1

CD8T cells = assay: Peptide immunity induction testing (peptide-stimulated dendritic cells cocultured with CD8T cells, IFN-γ ELISA); type: cell-based, human
Procedure: Peptide Immunity Induction Testing
Of the peripheral blood monocytes obtained through pheresis from a patient (0) that had undergone a dendritic cell/CTL therapy against MUC1, a cell fraction that adhered to a culture flask was cultured in an AIM-CM culture medium (manufactured by Gibco) at 37° C. for 10 days. During the culture, 15 μl of IL-4 and 30 μl of a granulocyte monocyte colony-stimulating factor (GM-CSF) added to the culture medium on Day 0 and Day 3, and 15 μl of IL-4, 30 μl of GM-CSF, and 75 μl of a tumor necrosis factor (TFN)-α were added thereto on Day 5.
Induced dendritic cells were collected in a new AIM-CM culture medium, and the peptide of the present invention (Sequence ID Nos. 1 to 12) was added thereto to a concentration of 20 μg/ml. […]
CD8T cells were isolated from the culture medium using a CD8 negative selection kit (manufactured by Miltenyi), and the number of cells was counted. […]
The culture supernatant of the coculture of the T cells and the dendritic cells pulsed with the above-mentioned peptides on Day 7 was diluted to four steps, that is, ×1, ×5, ×25, and ×125, and the dilution step within a measurement limit was identified using Human IFN-γ ELISA MAX Deluxe Set (manufactured by BioLegend). Thereafter, at the identified dilution step, each sample was measured three times. […]

Kd (HLA-A*24:02 molecule)	Kd (HLA-A*02:01 molecule)	Kd (HLA-A*02:06 molecule)	Binding to HLA-A*24:02 molecule (in words) (HLA-A*24:02 molecule)	Binding to HLA-A*02:01 molecule (in words) (HLA-A*02:01 molecule)	Binding to HLA-A*02:06 molecule (in words) (HLA-A*02:06 molecule)	Sequence	Immunogenicity (in words) (CD8T cells)
1.18 µM	28.3 µM	1.73 µM	–	–	–	GVPGWGIAL [Seq. ID No. 3, GVPGWGIAL]	–
> 1000 µM	0.366 µM	0.448 µM	–	–	–	GQDVTSVPV [Seq. ID No. 11, GQDVTSVPV]	–
0.226 µM	> 1000 µM	54.9 µM	–	–	–	LQRDISEMF [Seq. ID No. 6, LQRDISEMF]	–
0.711 µM	15.4 µM	150 µM	–	–	–	AASRYNLTI [Seq. ID No. 5, AASRYNLTI]	–
1.36 µM	> 1000 µM	> 1000 µM	–	–	–	HHSDTPTTL [Seq. ID No. 7, HHSDTPTTL]	–
6.74 µM	7.55 µM	6.19 µM	strongly binds	strongly binds	strongly binds	STGVSFFFL [Seq. ID No. 10, STGVSFFFL]	high immunogenicity

The next lines start with the sequence.

Sequence	Kd (HLA-A*24:02 molecule)	Kd (HLA-A*02:01 molecule)	Kd (HLA-A*02:06 molecule)	Binding to HLA-A*24:02 molecule (in words) (HLA-A*24:02 molecule)	Binding to HLA-A*02:01 molecule (in words) (HLA-A*02:01 molecule)	Binding to HLA-A*02:06 molecule (in words) (HLA-A*02:06 molecule)	Immunogenicity (in words) (CD8T cells)
FSAQSGAGV [Seq. ID No. 12, FSAQSGAGV]	> 1000 µM	18.2 µM	2.18 µM	–	–	–	–
FLGLSNIKF [Seq. ID No. 1, FLGLSNIKF]	0.0845 µM	4.07 µM	41.1 µM	–	–	–	–
SFFFLSFHI [Seq. ID No. 8, SFFFLSFHI]	0.0861 µM	> 100 µM	105 µM	–	–	–	–
TLAFREGTI [Seq. ID No. 9, TLAFREGTI]	1.06 µM	> 1000 µM	820 µM	–	–	–	–
AFREGTINV [Seq. ID No. 4, AFREGTINV]	1.47 µM	> 1000 µM	> 1000 µM	–	–	–	–
SVPVTRPAL [Seq. ID No. 2, SVPVTRPAL]	0.0573 µM	125 µM	2.36 µM	–	–	–	–
